# Reference: patent US6534546B1 (Chugai Seiyaku Kabushiki Kaisha, priority 1994, dated 2003)
# Structures can show the parent of a compound that is named as a salt.
# Target: iNOS (Type 2) (Rattus norvegicus, UniProt Q06518)
# Experiment: biochemical
# Format: biochemical
# Details: conclusion from Tables 49, 50 and 51
# iNOS (Type 2), sequence (Q06518 whole entry, looked up): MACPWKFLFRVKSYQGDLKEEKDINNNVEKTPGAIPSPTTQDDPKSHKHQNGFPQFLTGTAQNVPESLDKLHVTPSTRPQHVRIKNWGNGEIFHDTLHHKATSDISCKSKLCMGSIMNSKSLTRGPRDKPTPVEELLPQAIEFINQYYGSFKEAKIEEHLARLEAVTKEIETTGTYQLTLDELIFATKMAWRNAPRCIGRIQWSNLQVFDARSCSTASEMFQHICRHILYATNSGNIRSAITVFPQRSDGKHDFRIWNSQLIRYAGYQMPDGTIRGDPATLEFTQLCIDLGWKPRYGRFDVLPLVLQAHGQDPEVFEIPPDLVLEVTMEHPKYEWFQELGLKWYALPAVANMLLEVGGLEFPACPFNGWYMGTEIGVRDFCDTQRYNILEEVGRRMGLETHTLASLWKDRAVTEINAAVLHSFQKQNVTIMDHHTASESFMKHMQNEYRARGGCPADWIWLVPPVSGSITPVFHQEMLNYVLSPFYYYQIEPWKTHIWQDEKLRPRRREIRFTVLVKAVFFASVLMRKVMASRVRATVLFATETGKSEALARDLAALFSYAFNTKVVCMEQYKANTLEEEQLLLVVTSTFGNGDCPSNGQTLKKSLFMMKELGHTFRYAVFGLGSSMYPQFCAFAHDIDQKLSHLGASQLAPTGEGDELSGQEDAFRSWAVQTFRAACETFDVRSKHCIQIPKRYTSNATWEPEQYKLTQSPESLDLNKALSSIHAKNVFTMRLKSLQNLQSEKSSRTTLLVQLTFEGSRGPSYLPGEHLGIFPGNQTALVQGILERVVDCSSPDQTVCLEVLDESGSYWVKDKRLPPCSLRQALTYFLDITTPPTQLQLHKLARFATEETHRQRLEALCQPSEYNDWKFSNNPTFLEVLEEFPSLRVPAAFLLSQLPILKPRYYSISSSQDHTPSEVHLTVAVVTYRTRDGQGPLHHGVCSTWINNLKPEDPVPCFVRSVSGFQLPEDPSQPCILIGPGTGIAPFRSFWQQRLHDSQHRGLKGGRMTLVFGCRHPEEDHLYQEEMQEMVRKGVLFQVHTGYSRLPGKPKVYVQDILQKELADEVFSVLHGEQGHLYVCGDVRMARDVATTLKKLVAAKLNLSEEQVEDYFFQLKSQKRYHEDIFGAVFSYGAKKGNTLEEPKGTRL
row,Compound,iNOS inhibitory potency compared with the existing NOS inhibitors (L-MIN)
1,"CCSC(=N)Nc1cccc(CN)c1.Cl.Cl [Example 28, N-(3-(S-ethylisothioureido)phenylmethyl)amine dihydrochloride]",more potent in inhibiting iNOS than L-MIN

# Same assay, conditions: mean of one to four independent experiments; LPS-treated rat lung crude enzyme; read-out: IC50 value, iNOS (Type 2)
row,Compound,IC50 [µM]
1,"N=C(Nc1cccc(CN)c1)N[N+](=O)[O-] [Example 34, N-(3-(N′-nitroguanidino)phenylmethyl)amine]",6.76

# Same assay, conditions: mean of one to four independent experiments; crude enzyme, 100 nM L-[3H]arginine, without CaCl2 and calmodulin; read-out: IC50 value, iNOS (Type 2)
row,Compound,IC50 [µM]
1,"CSC(=N)Nc1cccc(CCN)c1 [Example 60, N-(3-(S-methylisothioureido)phenylethyl)amine dihydrochloride]",6.75
2,"CCSC(=N)Nc1cccc(CN)c1.Cl.Cl [Example 28, N-(3-(S-ethylisothioureido)phenylmethyl)amine dihydrochloride]",0.0327
3,"CCC(N)c1cccc(NC(=N)SC)c1 (centres unmarked) [Example 19, N-(1-(3-(S-methylisothioureido)phenyl)propyl)amine dihydrochloride]",2.4
4,"N=C(Nc1ccc(CCN)cc1)N[N+](=O)[O-] [Example 54, N-(4-(N′-nitroguanidino)phenylethyl)amine]",5.02
5,"CC(N)c1cccc(NC(N)=N[N+](=O)[O-])c1 (centres unmarked) [Example 14, N-(1-(3-(N′-nitroguanidino)phenyl)ethyl)amine hydrochloride]",3.68

# Target: T1, E-cNOS (Type 3) (Bos taurus, UniProt P29473)
# T1 construct: the resulting supernatant was used as the crude enzyme sample of E-cNOS; endogenous in cells; host or cells: CPAE (cow pulmonary arterial endothelium cells), 1% Triton X-100 extract, 100,000 x g supernatant
# Experiment: biochemical
# Details: not given
# T1 sequence (P29473 2-1205): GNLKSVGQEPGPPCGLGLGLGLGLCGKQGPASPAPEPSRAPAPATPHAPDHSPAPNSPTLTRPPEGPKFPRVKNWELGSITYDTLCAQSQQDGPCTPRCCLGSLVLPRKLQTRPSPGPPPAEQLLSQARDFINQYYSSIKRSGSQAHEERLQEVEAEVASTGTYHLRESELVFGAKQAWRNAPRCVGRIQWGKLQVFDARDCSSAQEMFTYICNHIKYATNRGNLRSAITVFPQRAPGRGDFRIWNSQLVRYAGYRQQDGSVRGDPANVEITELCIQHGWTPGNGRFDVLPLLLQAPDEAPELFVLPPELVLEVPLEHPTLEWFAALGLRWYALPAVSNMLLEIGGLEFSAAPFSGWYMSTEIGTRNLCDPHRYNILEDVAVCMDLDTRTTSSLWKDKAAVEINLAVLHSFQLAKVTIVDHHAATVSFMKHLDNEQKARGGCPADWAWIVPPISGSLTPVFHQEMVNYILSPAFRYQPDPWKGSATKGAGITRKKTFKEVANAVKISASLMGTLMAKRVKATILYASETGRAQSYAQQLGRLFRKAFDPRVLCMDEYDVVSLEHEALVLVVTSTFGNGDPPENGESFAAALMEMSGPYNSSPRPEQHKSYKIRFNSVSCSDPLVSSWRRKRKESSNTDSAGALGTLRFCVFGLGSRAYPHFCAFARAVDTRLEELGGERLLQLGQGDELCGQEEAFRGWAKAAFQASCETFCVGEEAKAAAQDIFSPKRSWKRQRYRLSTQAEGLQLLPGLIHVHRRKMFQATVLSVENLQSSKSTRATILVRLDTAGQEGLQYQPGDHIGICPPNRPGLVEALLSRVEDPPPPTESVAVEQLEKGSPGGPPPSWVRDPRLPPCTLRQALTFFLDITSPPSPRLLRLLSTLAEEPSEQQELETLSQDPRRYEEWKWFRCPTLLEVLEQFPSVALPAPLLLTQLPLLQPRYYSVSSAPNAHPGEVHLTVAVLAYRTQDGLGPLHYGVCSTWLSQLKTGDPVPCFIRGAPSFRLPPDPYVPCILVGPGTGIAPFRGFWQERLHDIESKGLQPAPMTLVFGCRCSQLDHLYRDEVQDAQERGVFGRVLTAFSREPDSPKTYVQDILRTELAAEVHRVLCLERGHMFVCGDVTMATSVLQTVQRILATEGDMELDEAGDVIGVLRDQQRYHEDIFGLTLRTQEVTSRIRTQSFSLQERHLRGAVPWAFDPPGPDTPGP
row,Compound,IC50 [µM]
1,"CSC(=N)Nc1cccc(C2(N)CCCCC2)c1 [Example 142, N-(1-(3-(S-methylisothioureido)phenyl)cyclohexyl)amine dihydrochloride]",0.663
2,"CCSC(=N)Nc1cccc(C2(N)CCCCC2)c1 [Example 144, N-(1-(3-(S-ethylisothioureido)phenyl)cyclohexyl)amine dihydrochloride]",0.898
3,"CCSC(=N)Nc1ccc(CCN)c(OC)c1 [Example 482, N-(2-(4-(S-ethylisothioureido)-2-methoxyphenyl)ethyl)amine dihydrochloride]",1.99
4,"CCN=C(N)Nc1ccc(CCN)c(F)c1 [Example 258, N-(2-(4-(N′-ethylguanidino)-2-fluorophenyl)ethyl)amine dihydrochloride]",1.09
5,"CCSC(=N)Nc1ccc(CC(C)(C)N)cc1 [Example 193, N-(1,1-dimethyl-2-(4-(S-ethylisothioureido)phenyl)ethyl)amine dihydrochloride]",1.54
6,"NC(=N[N+](=O)[O-])Nc1cccc(C2(N)CCCCC2)c1 [Example 169, N-(1-(3-(N′-nitroguanidino)phenyl)cyclohexyl)amine hydrochloride]",0.0415
7,"CCN=C(N)Nc1cccc(C2(N)CCCCC2)c1 [Example 234, N-(1-(3-(N′-ethylguanidino)phenyl)cyclohexyl)amine dihydrochloride]",1.17

# Same assay, conditions: mean of one to four independent experiments; CPAE cell crude enzyme; read-out: IC50 value, E-cNOS (Type 3)
row,Compound,IC50 [µM]
1,"CCSC(=N)Nc1ccc(C(C)(C)CN)cc1 [Example 185, N-(2-(4-(S-ethylisothioureido)phenyl)-2-methylpropyl)amine dihydrochloride]",3.17

# Same assay, conditions: mean of one to four independent experiments; crude enzyme, 100 nM L-[3H]arginine; read-out: IC50 value, E-cNOS (Type 3)
row,Compound,IC50 [µM]
1,"CCN=C(N)Nc1cccc(C2(N)CCCC2)c1 [Example 236, N-(1-(3-(N′-ethylguanidino)phenyl)cyclopentyl)amine dihydrochloride]",0.325
2,"CCN=C(N)Nc1ccc(CCN)cc1 [Example 528, N-(2-(4-(N′-ethylguanidino)phenyl)ethyl)amine dihydrochloride]",0.436
3,"CCSC(=N)Nc1cccc(CNC)c1 [Example 47, N-(3-(S-ethylisothioureido)phenylmethyl)methylamine dihydrochloride]",0.0729
4,"CCSC(=N)Nc1cccc(C2(N)CC2)c1 [Example 167, N-(1-(3-(S-ethylisothioureido)phenyl)cyclopropyl)amine dihydrochloride]",0.366
5,"CCN=C(N)Nc1cccc(CN(C)C)c1 [Example 374, N-(3-(N′-ethylguanidino)phenylmethyl)dimethylamine dihydrochloride]",1.29
6,"CCSC(=N)Nc1cccc(C2(N)CCC2)c1 [Example 162, N-(1-(3-(S-ethylisothioureido)phenyl)cyclobutyl)amine dihydrochloride]",0.576
7,"CCN=C(N)Nc1cccc(CNC)c1 [Example 376, N-(3-(N′-ethylguanidino)phenylmethyl)methylamine dihydrochloride]",0.339
8,"NC(=N[N+](=O)[O-])Nc1cccc(C2(N)CCCC2)c1 [Example 171, N-(1-(3-(N′-nitroguanidino)phenyl)cyclopentyl)amine hydrochloride]",0.0292
9,"N=C(NCCC[C@H](N)C(=O)O)NC1CC1 [L-CPA, N^G-cyclpropyl-L-arginine, reference compound]",0.987
10,"CCN=C(N)Nc1cccc(C2(N)CCC2)c1 [Example 238, N-(1-(3-(N′-ethylguanidino)phenyl)cyclobutyl)amine dihydrochloride]",1.16
11,"CCN=C(N)Nc1cccc(C(C)(C)N)c1 [Example 300, N-(1-(3-(N′-ethylguanidino)phenyl)-1-methylethyl) amine dihydrochloride]",0.492
12,"CCSC(=N)Nc1cccc(C(N)CC)c1 (centres unmarked) [Example 177, N-(1-(3-(S-ethylisothioureido)phenyl)propyl)amine dihydrochloride]",0.51
13,"CCN=C(N)Nc1cccc(CCN)c1 [Example 543, N-(3-(N′-ethylguanidino)phenylethyl)amine dihydrochloride]",3.12
14,"CCN=C(N)Nc1ccc(N(C)CC)c(CN)c1 [Example 285, N-(5-(N′-ethylguanidino)-2-(N-ethyl-N-methyl-amino)phenylmethyl)amine trihydrochloride]",7.31
15,"CCSC(=N)Nc1cccc(C2(N)CCCC2)c1 [Example 153, N-(1-(3-(S-ethylisothioureido)phenyl)cyclopentyl)amine dihydrochloride]",0.423
16,"N=C(Nc1cccc(C2(N)CCC2)c1)N[N+](=O)[O-] [Example 173, N-(1-(3-(N′-nitroguanidino)phenyl)cyclobutyl)amine hydrochoride]",0.0241
17,"CCNc1ccc(NC(=N)SCC)cc1CN(C(=O)OC(C)(C)C)C(=O)OC(C)(C)C [Example 458, N-(2-ethylamino-5-(S-ethylisothioureido)phenylmethyl)iminodicarboxylic acid di-t-butyl ester]",4.1
18,"CCSC(=N)Nc1cccc(C(C)N)c1 (centres unmarked) [Example 175, N-(1-(3-(S-ethylisothioureido)phenyl)ethyl)amine dihydrochloride]",0.2

row,Compound,IC50 [µM]
1,"CCSC(=N)Nc1cccc(C(C)NC)c1 (centres unmarked) [Example 112, N-(1-(3-(S-ethylisothiourido)phenyl)ethyl)methylamine dihydrochloride]",0.408
2,"CSC(=N)Nc1cccc(C2(N)CCCC2)c1 [Example 151, N-(1-(3-(S-methylisothioureido)phenyl)cyclopentyl)amine dihydrochloride]",0.262
3,"CCN(C)C(=N)Nc1cccc(CN)c1 [Example 305, N-(3-(N′-ethyl-N′-methylguanidino)phenylmethyl)amine dihydrochloride]",1.71
4,"CCSC(=N)Nc1cccc(CNC)c1C [Example 411, N-(3-(S-ethylisothioureido)-2-methylphenylmethyl)methylamine dihydrochloride]",0.341
5,"CCN=C(N)Nc1cccc(CN)c1C [Example 533, N-(3-(N′-ethylguanidino)-2-methylphenylmethyl)amine dihydrochloride]",3.77
6,"CCSC(=N)Nc1cccc(CN)c1Cl [Example 137, N-(2-chloro-3-(S-ethylisothioureido)phenylmethyl)amine dihydrochloride]",0.485
7,"CN(C)c1ccc(NC(N)=N[N+](=O)[O-])cc1CN [Example 281, N-(2-dimethylamino-5-(N′-nitroguanidino)phenylmethyl)amine dihydrochloride]",1.62
8,"CCSC(=N)Nc1ccc(N(C)CC)c(CN)c1 [Example 288, N-(5-(S-ethylisothioureido)-2-(N-ethyl-N-methylamino)phenylmethyl)amine trihydrochloride]",1.26
9,"CCSC(=N)Nc1cccc(CNN)c1 [Example 355, 3-(S-ethylisothioureido)phenylmethylhydrazine trihydrochloride]",0.662
10,"CCSC(=N)Nc1ccc(NCc2ccccc2)c(CN)c1 [Example 438, N-(2-benzylamino-5-(S-ethylisothioureido)phenylmethyl)amine trihydrochloride]",6.95
11,"NCc1cc(NC(N)=N[N+](=O)[O-])ccc1OCc1ccccc1 [Example 341, N-(2-benzyloxy-5-(N′-nitroguanidino)phenylmethyl)amine hydrochloride]",0.874
12,"CCSC(=N)Nc1ccc(OC)c(CN)c1OC [Example 298, N-(2,6-dimethoxy-3-(S-ethylisothioureido)phenylmethyl)amine dihydrochloride]",4.14
13,"CN=C(N)Nc1cccc(CN)c1 [Example 367, N-(3-(N′-methylguanidino)phenylmethyl)amine dihydrochloride]",3.71
14,"CSC(=N)Nc1cccc(C2(N)CCC2)c1 [Example 160, N-(1-(3-(S-methylisothioureido)phenyl)cyclobutyl)amine dihydrochloride]",0.477
15,"CCSC(=N)Nc1ccc(F)c(CN)c1 [Example 317, N-(5-(S-ethylisothioureido)-2-fluorophenylmethyl)amine dihydrochloride]",0.239
16,"CCSC(=N)Nc1cccc(CN(C)C)c1 [Example 372, N-(3-(S-ethylisothioureido)phenylmethyl)dimethylamine]",0.36
17,"CCSC(=N)Nc1ccc(C(CN)C(=O)OC)cc1 (centres unmarked) [Example 226, 3-amino-2-(4-(S-ethylisothioureido)phenyl)propionic acid methyl ester dihydrochloride]",1.44
